pIC50: −log10 of the molar value.
Columns and labels:
[1] = Antiplatelet activity in human platelet rich plasma assessed as inhibition of ADP-induced platelet aggregation by Born's method; assay type: functional
[2] = biological target: Integrin alpha-IIb/beta-3 (Homo sapiens, UniProt P05106+P08514); test: Inhibition of FITC-labelled fibrinogen binding to integrin alpha2b beta3 receptor in human platelet cells; assay type: cell-based
Integrin alpha-IIb/beta-3, sequence (P05106 27-788 limits assumed): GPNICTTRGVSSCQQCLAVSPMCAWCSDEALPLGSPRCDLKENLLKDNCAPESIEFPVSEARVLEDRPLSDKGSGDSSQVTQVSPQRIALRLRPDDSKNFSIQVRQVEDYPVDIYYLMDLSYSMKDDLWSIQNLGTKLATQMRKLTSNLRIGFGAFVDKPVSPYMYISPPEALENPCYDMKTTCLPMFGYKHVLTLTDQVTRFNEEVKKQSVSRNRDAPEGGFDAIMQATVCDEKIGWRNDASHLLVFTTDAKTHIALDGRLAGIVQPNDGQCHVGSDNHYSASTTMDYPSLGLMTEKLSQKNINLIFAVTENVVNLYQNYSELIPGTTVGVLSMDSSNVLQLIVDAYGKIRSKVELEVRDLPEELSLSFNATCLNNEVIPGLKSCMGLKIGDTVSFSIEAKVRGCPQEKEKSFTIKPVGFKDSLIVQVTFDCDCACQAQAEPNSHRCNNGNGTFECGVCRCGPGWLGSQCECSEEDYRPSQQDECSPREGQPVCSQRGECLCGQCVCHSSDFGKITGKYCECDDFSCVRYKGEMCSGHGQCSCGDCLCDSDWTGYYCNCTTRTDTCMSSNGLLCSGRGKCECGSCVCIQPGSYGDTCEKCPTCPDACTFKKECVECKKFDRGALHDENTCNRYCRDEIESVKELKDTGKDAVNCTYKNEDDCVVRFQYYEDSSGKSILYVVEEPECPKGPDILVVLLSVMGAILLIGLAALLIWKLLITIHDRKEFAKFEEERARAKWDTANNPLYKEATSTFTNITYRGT
Integrin alpha-IIb/beta-3, sequence (P08514 32-887 limits assumed): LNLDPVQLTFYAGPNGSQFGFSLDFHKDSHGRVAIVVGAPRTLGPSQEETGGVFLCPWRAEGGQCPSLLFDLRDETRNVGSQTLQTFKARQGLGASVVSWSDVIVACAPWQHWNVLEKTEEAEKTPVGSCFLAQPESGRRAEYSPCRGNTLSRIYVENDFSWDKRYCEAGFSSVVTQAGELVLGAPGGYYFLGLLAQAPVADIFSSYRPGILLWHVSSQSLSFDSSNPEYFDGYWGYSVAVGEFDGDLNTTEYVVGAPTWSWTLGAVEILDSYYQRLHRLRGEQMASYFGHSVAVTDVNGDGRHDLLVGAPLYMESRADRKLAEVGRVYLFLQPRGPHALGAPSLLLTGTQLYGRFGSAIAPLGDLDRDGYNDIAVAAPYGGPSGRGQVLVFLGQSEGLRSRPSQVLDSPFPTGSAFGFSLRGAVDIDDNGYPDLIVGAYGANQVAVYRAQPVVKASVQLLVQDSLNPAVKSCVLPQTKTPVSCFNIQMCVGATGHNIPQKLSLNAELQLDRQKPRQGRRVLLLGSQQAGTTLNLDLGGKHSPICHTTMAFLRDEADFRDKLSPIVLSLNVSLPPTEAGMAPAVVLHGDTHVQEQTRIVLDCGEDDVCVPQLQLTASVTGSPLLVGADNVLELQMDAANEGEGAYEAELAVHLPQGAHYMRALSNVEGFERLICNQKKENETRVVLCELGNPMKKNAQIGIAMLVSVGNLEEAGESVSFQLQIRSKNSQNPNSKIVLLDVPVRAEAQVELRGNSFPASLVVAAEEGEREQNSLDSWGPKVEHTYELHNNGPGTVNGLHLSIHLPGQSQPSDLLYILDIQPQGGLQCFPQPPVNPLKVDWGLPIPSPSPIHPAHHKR
Integrin alpha-IIb/beta-3, sequence (P08514 891-1039 limits assumed): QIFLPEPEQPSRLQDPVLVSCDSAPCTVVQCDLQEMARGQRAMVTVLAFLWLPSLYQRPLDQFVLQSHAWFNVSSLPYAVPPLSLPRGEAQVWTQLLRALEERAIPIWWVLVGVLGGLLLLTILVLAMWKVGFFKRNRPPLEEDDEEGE

Row | SMILES | pIC50 [1] | pIC50 [2]
1 | NCCCC(=O)Nc1ccc2nc(N3CCNCC3)nc(-c3ccccc3)c2c1 | 7.31 | –
2 | NCCCCCC(=O)Nc1ccc2nc(N3CCNCC3)[nH]c(=O)c2c1 | 5.89 | –
3 | O=C(Nc1ccc2nc(N3CCNCC3)[nH]c(=O)c2c1)c1ccc(N2CCNCC2)cc1 | 5.89 | 7.70
4 | NCc1ccc(C(=O)Nc2ccc3nc(N4CCNCC4)[nH]c(=O)c3c2)cc1 | 5.72 | –
5 | NCCC(=O)Nc1ccc2nc(N3CCNCC3)nc(-c3ccccc3)c2c1 | 6.24 | –
6 | NCCCCCC(=O)Nc1ccc2nc(N3CCNCC3)nc(-c3ccccc3)c2c1 | 4.24 | –
7 | NCCCCC(=O)Nc1ccc2nc(N3CCNCC3)nc(-c3ccccc3)c2c1 | 4.32 | –
8 | O=C(Nc1ccc2nc(N3CCNCC3)[nH]c(=O)c2c1)c1ccc(C2CCNCC2)cc1 | 6.24 | –
9 | CCC(=O)Nc1ccc2nc(N3CCNCC3)nc(-c3ccccc3)c2c1 | 6.14 | –
10 | CCCCS(=O)(=O)N[C@@H](Cc1ccc(OCCCCC2CCNCC2)cc1)C(=O)O [TIROFIBAN] | 7.52 | –

Results, then the compound that gave them:

Row | pIC50 [1] | pIC50 [2] | SMILES
11 | 6.77 | 7.26 | CCC(=O)Nc1ccc2nc(N3CCNCC3)[nH]c(=O)c2c1
12 | 7.72 | 8.82 | NC[C@H](NC(=O)OCc1ccccc1)C(=O)Nc1ccc2nc(N3CCNCC3)[nH]c(=O)c2c1
13 | 7.40 | 8.74 | CC(C)COC(=O)N[C@@H](CN)C(=O)Nc1ccc2nc(N3CCNCC3)[nH]c(=O)c2c1
14 | 7.22 | – | CCOC(=O)N[C@@H](CN)C(=O)Nc1ccc2nc(N3CCNCC3)[nH]c(=O)c2c1
15 | 5.85 | – | NCCCCC(=O)Nc1ccc2nc(N3CCNCC3)[nH]c(=O)c2c1
16 | 8.00 | 8.80 | NCC[C@H](NC(=O)OCc1ccccc1)C(=O)Nc1ccc2nc(N3CCNCC3)[nH]c(=O)c2c1

Source: ChEMBL document CHEMBL3785050, “Synthesis, biological evaluation and molecular docking studies of 2-piperazin-1-yl-quinazolines as platelet aggregation inhibitors and ligands of integrin αIIbβ3” (Bioorg Med Chem Lett, 2016)
